In brackets after ≈: the same amount, converted by molar mass. Bridge positions count the residues as written; N and C are the ends. Peptide text beside a SMILES is read from it.
Tests used:
A. baumannii 6838 = format: cell-based, Acinetobacter baumannii; conditions: cation adjusted Mueller-Hinton broth, ~10^6 CFU/mL, 24 h, 37 °C, OD600 <0.1 in at least 3 of 4 wells, 2-128 μg/mL; shaded values previously reported ref 18
Outline: (§1)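 MIC = lowest dAMP level giving OD600 <0.1 in at least three of four replicate wells after 24 h at 37 °C. Inoculum ~10^6 CFU/mL in 2X cation-adjusted Mueller–Hinton broth; potato dextrose broth for the fungal isolate. Test range 2–128 μg/mL plus untreated.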

A. baumannii 6043 = format: cell-based, Acinetobacter baumannii; conditions: cation adjusted Mueller-Hinton broth, ~10^6 CFU/mL, 24 h, 37 °C, OD600 <0.1 in at least 3 of 4 wells, 2-128 μg/mL; shaded values previously reported ref 18
Outline: as §1

A. baumannii ATCC 17978 = format: cell-based, Acinetobacter baumannii; conditions: cation adjusted Mueller-Hinton broth, ~10^6 CFU/mL, 24 h, 37 °C, OD600 <0.1 in at least 3 of 4 wells, 2-128 μg/mL; shaded values previously reported ref 18
Outline: as §1

P. aeruginosa 6186 = format: cell-based, Pseudomonas aeruginosa; conditions: cation adjusted Mueller-Hinton broth, ~10^6 CFU/mL, 24 h, 37 °C, OD600 <0.1 in at least 3 of 4 wells, 2-128 μg/mL; shaded values previously reported ref 18
Outline: as §1

P. aeruginosa ATCC 27853 = format: cell-based, Pseudomonas aeruginosa; conditions: cation adjusted Mueller-Hinton broth, ~10^6 CFU/mL, 24 h, 37 °C, OD600 <0.1 in at least 3 of 4 wells, 2-128 μg/mL; shaded values previously reported ref 18
Outline: as §1

P. aeruginosa ATCC 19660 = format: cell-based, Pseudomonas aeruginosa; conditions: cation adjusted Mueller-Hinton broth, ~10^6 CFU/mL, 24 h, 37 °C, OD600 <0.1 in at least 3 of 4 wells, 2-128 μg/mL; shaded values previously reported ref 18
Outline: as §1

K. pneumonia 6069 = format: cell-based, Klebsiella pneumoniae; conditions: cation adjusted Mueller-Hinton broth, ~10^6 CFU/mL, 24 h, 37 °C, OD600 <0.1 in at least 3 of 4 wells, 2-128 μg/mL; shaded values previously reported ref 18
Outline: as §1

K. pneumonia ATCC 10031 = format: cell-based, Klebsiella pneumoniae; conditions: cation adjusted Mueller-Hinton broth, ~10^6 CFU/mL, 24 h, 37 °C, OD600 <0.1 in at least 3 of 4 wells, 2-128 μg/mL; shaded values previously reported ref 18
Outline: as §1

MRSA 6381 = format: cell-based, Staphylococcus aureus; conditions: cation adjusted Mueller-Hinton broth, ~10^6 CFU/mL, 24 h, 37 °C, OD600 <0.1 in at least 3 of 4 wells, 2-128 μg/mL; shaded values previously reported ref 18
Outline: as §1

MRSA 6313 = format: cell-based, Staphylococcus aureus; conditions: cation adjusted Mueller-Hinton broth, ~10^6 CFU/mL, 24 h, 37 °C, OD600 <0.1 in at least 3 of 4 wells, 2-128 μg/mL; shaded values previously reported ref 18
Outline: as §1

MRSA ATCC 33592 = format: cell-based, Staphylococcus aureus; conditions: cation adjusted Mueller-Hinton broth, ~10^6 CFU/mL, 24 h, 37 °C, OD600 <0.1 in at least 3 of 4 wells, 2-128 μg/mL; shaded values previously reported ref 18
Outline: as §1

L929 fibroblast cells = assay: Bioluminescent mammalian cytotoxicity assay; format: cell-based, murine; conditions: L929 fibroblasts, up to 64 μg/mL, 8 h of exposure, bioluminescence
Protocol: Real-time killing of bacterial cells, P. aeruginosa or S. aureus, and mammalian cytotoxicity to assess dAMP off-target toxicity was evaluated using bioluminescent cells. The L929 fibroblast cells (ATCC, Manassas, VA, USA) were made bioluminescent by transfection with a luciferase gene. Cells (1 × 10^4 cells, 100 μL) were plated in 96-well black-walled plates and the candidate dAMPs were 2-fold serially diluted from specified concentrations in growth medium supplemented with 150 μg/mL D-luciferin. Each concentration was performed in triplicate, with the final volume being 200 μL. Imaging was performed at select times after the addition of the dAMP, and compared to concurrently run vehicle-control, using an IVIS Lumina imaging system (Caliper Life Sciences, Inc., Hopkinton, MA, USA). For imaging, the 96-well plate was positioned on the stage (12.5-cm field of view), with an open emission filter, binning of 4, and f-stop 1 and a 1-min exposure time. Monitoring bioluminescence allows assessment of the kinetics of cellular viability as there is a tight correlation between the bioluminescent signal and cell viability. […]
Figure 2 RP504, RP556 and RP557 induce limited mammalian cell toxicity. […] Cells were plated at 1×10^4 cells/well, allowed to adhere overnight and the specific dAMP added, and cytotoxicity evaluated through 8 h. […]

[1] = system: S. aureus 49525 (Xen36 luciferase); format: cell-based, Staphylococcus aureus; conditions: 8 μg/mL, 60 min incubation, bioluminescence, triplicates from two independent experiments
Outline: (§2)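 Luciferase-expressing bacteria exposed to 2-fold serial dilutions of peptide in growth medium with 150 μg/mL D-luciferin, triplicate. Bioluminescence imaged at select times versus concurrent vehicle control as a real-time viability read-out.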

[2] = system: vulvovaginal candidiasis infection; conditions: cited from earlier work
From the text: The dAMPs RP504, RP554 and RP557 were thus tested for their ability to treat a rodent vulvovaginal candidiasis infection. […] A daily dose with a 2% concentration lowered the CFU/sample by more than 4 logs compared to the con ...

[3] = system: preformed and mature MRSA biofilm; conditions: cited from earlier work
From the text: (§3) Early and empiric treatment is required due to the rapid emergence of both bacterial and fungal resistance and resilience due to biofilm formation multi-drug resistant organisms and their associated biofilms play a significant role in the pathogenicity and chronicity of wound infections. The resistance of bacteria and fungi residing in biofilms is due to the biofilm matrix acting as a fortified barrier and the presence of slow-growing microbes with poor metabolic activity, known as persisters. The dAMPs direct perturbation of cellular membranes is effective at eradicating biofilms. RP55 ...

Candida biofilm = conditions: cited from earlier work
From the text: as §3

[4] = system: P. aeruginosa 19660 (Xen5 luciferase); assay: Bioluminescent time-kill assay; format: cell-based, Pseudomonas aeruginosa; conditions: 8 μg/mL; RP553 at 60 min; bioluminescence
Outline: as §2

CC[C@H](C)[C@@H]1NC(=O)CNC(=O)[C@H](CCCCN)NC(=O)[C@H](Cc2ccc(O)cc2)NC(=O)[C@@H]2CSSC[C@H](NC1=O)C(=O)N[C@@H](Cc1ccccc1)C(=O)N[C@@H](CCCCN)C(=O)N[C@@H](CCCCN)C(=O)N[C@H](C(=O)N[C@@H](CCCCN)C(N)=O)CSSC[C@H](NC(=O)[C@H](Cc1ccccc1)NC(=O)[C@@H](N)CCCNC(=N)N)C(=O)N[C@@H](Cc1c[nH]c3ccccc13)C(=O)N[C@@H](CCCCN)C(=O)N[C@@H](C(C)C)C(=O)N2 [RP557] (H-RFCWKVCYKGICFKKCK-NH2; disulfide 3-16, 7-12)
MIC against A. baumannii 6838 (A. baumannii 6838): 8 µg/mL (≈ 3.75 µM) | MIC against A. baumannii 6043 (A. baumannii 6043): 8 µg/mL (≈ 3.75 µM) | MIC against A. baumannii ATCC 17978 (A. baumannii ATCC 17978): 16 µg/mL (≈ 7.49 µM) | MIC against P. aeruginosa 6186 (P. aeruginosa 6186): 4 µg/mL (≈ 1.87 µM) | MIC against P. aeruginosa ATCC 27853 (P. aeruginosa ATCC 27853): 4 µg/mL (≈ 1.87 µM) | MIC against P. aeruginosa ATCC 19660 (P. aeruginosa ATCC 19660): 4 µg/mL (≈ 1.87 µM) | MIC against K. pneumonia 6069 (K. pneumonia 6069): 4 µg/mL (≈ 1.87 µM) | MIC against K. pneumonia ATCC 10031 (K. pneumonia ATCC 10031): 8 µg/mL (≈ 3.75 µM) | MIC against MRSA 6381 (MRSA 6381): 4 µg/mL (≈ 1.87 µM) | MIC against MRSA 6313 (MRSA 6313): 4 µg/mL (≈ 1.87 µM) | MIC against MRSA ATCC 33592 (MRSA ATCC 33592): 4 µg/mL (≈ 1.87 µM) | mammalian cell toxicity (in words) (L929 fibroblast cells): Limited toxicity | S. aureus killing [1]: 70% | lowering of CFU/sample compared to control samples ([2]; daily dose with a 2% concentration, dose-response protocol): more than 4 logs | reduction of CFU/tissue sample ([2]; rodent vulvovaginal candidiasis, after three days of daily treatment): ≥ 2.5 logs | disruption of preformed and mature MRSA biofilm [3]: completely disrupted | disruption of Candida biofilm (Candida biofilm): completely disrupted | P. aeruginosa killing (in words) [4]: immediate eradication
